Laboratory results: patent US11225477B2, “Inhibitors of influenza virus replication, application methods and uses thereof” (SUNSHINE LAKE PHARMA CO., LTD., priority 2015, dated 2022)

Legend:
virus H1N1 A/Weiss/43 = experiment: microbe, parasite or virus in culture; format: cell-based; conditions: Influenza A virus, 120 h; MDCK cells, H1N1 A/Weiss/43, Scheme 2: 8 concentrations 50 nM to 0.023 nM, 5 days, CCK-8
in vivo = conditions: SD, rat
Protocol: (§1) The compounds disclosed herein were administered in form of a saline solution containing 5% DMSO, 5% Kolliphor HS 15 and 90% Saline. […] Plasma samples were collected and stored at −20° C. or −70° C. until LC/MS/MS analysis.

[1] = SD, rat, in vivo; for F: po, 5 mg/kg
Protocol: as §1

Row | SMILES | EC50 (virus H1N1 A/Weiss/43) [nM] | AUC(0-inf) (in vivo; iv, 1 mg/kg) [ng·h/mL] | AUC(0-t) (in vivo; iv, 1 mg/kg) [ng·h/mL] | Cmax (in vivo; iv, 1 mg/kg) [ng/mL] | Tmax (in vivo; iv, 1 mg/kg) [h] | Vd (in vivo; iv, 1 mg/kg) [L/kg] | clearance (in vivo; iv, 1 mg/kg) [mL/min/kg] | half-life (in vivo; iv, 1 mg/kg) [h] | AUC(0-inf) (in vivo; po, 5 mg/kg) [ng·h/mL] | AUC(0-t) (in vivo; po, 5 mg/kg) [ng·h/mL] | Cmax (in vivo; po, 5 mg/kg) [ng/mL] | Tmax (in vivo; po, 5 mg/kg) [h] | half-life (in vivo; po, 5 mg/kg) [h] | F [1] [%] | CL ([1]; iv, 1 mg/kg) [mL/min/kg]
1 | CC(C)n1ccc2c(NC3C4CCC(CC4)C3C(=O)O)nc(-c3c[nH]c4ncc(F)cc34)nc21 (racemic) [Example 25, (+/−)-trans-3-((2-(5-fluoro-1H-pyrrolo[2,3-b]pyridin-3-yl)-7-isopropyl-7H-pyrrolo[2,3-d]pyrimidin-4-yl)amino)bicyclo[2.2.2]octane-2-carboxylic Acid] | 0.26 |  |  |  |  |  |  |  |  |  |  |  |  |  | 
2 | O=C(O)[C@H]1C2CCC(CC2)[C@@H]1Nc1cc(-c2ccco2)nc(-c2c[nH]c3nc(F)ccc23)n1 [Example 73, (2S,3S)-3-((2-(6-fluoro-1H-pyrrolo[2,3-b]pyridin-3-yl)-6-(furan-2-yl)pyrimidin-4-yl)amino)bicyclo[2.2.2]octane-2-carboxylic Acid] |  | 24800 | 24200 | 14800 | 0.083 | 0.212 | 0.681 | 1.41 | 52800 | 50600 | 9300 | 1.5 | 5.58 | 42.6 | 
3 | O=C(O)C1C2CCC(CC2)C1Nc1cc(-c2cccc3c2oc2ccccc23)nc(-c2c[nH]c3ncc(F)cc23)n1 (racemic) [Example 18, (+/−)-trans-3-((6-(dibenzo[b,d]furan-4-yl)-2-(5-fluoro-1H-pyrrolo[2,3-b]pyridin-3-yl)pyrimidin-4-yl)amino)bicyclo[2.2.2]octane-2-carboxylic Acid] |  | 3190 | 3130 | 4470 | 0.083 | 0.598 | 5.3 | 4.37 | 6880 | 6840 | 1690 | 2 | 3.71 | 43.1 | 
4 | Cn1ccc2c(NC3C4CCC(CC4)C3C(=O)O)nc(-c3c[nH]c4ncc(F)cc34)nc21 (racemic) [Example 65, (+/−)-trans-3-((2-(5-fluoro-1H-pyrrolo[2,3-b]pyridin-3-yl)-7-methyl-7H-pyrrolo[2,3-d]pyrimidin-4-yl)amino)bicyclo[2.2.2]octane-2-carboxylic Acid] | 0.66 | 5360 | 5340 | 6830 | 0.083 | 0.168 | 3.13 | 0.965 | 12100 | 12000 | 7940 | 0.417 | 1.14 | 44.9 | 
5 | O=C(O)[C@H]1C2CCC(CC2)C1Nc1cc(-c2ccccc2)nc(-c2c[nH]c3ncc(F)cc23)n1 (stereo in doubt) [Example 4a, (2S,3S)-3-((2-(5-fluoro-1H-pyrrolo[2,3-b]pyridin-3-yl)-6-phenylpyrimidin-4-yl)amino)bicyclo[2.2.2]octane-2-carboxylic Acid] | 0.17 |  |  |  |  |  |  |  |  |  |  |  |  |  | 
6 | O=C(O)C1C2CCC(CC2)C1Nc1cc(C2CC2)nc(-c2c[nH]c3ncc(F)cc23)n1 (racemic) [Example 68, (+/−)-trans-3-((6-cyclopropyl-2-(5-fluoro-1H-pyrrolo[2,3-b]pyridin-3-yl)pyrimidin-4-yl)amino)bicyclo[2.2.2]octane-2-carboxylic Acid] |  | 2880 | 2760 | 3750 | 0.083 | 0.551 | 5.86 | 2.01 | 8330 | 8310 | 2960 | 0.417 | 3.24 | 60.1 | 
7 | O=C(O)C1C2CCC(CC2)C1Nc1nc(-c2c[nH]c3ncc(F)cc23)nc(-c2cc3ccccc3o2)c1F (racemic) [Example 54, (+/−)-trans-3-((6-(benzofuran-2-yl)-5-fluoro-2-(5-fluoro-1H-pyrrolo[2,3-b]pyridin-3-yl)pyrimidin-4-yl)amino)bicyclo[2.2.2]octane-2-carboxylic Acid] | 0.261 |  |  |  |  |  |  |  |  |  |  |  |  |  | 
8 | Cc1nc2[nH]cc(-c3nc(NC4C5CCC(CC5)C4C(=O)O)cc(-c4ccccc4)n3)c2cc1F (racemic) [Example 80, (+/−)-trans-3-((2-(5-fluoro-6-methyl-1H-pyrrolo[2,3-b]pyridin-3-yl)-6-phenylpyrimidin-4-yl)amino)bicyclo[2.2.2]octane-2-carboxylic Acid] |  | 3380 | 3320 | 5630 | 0.083 | 1.5 | 4.94 | 1.53 | 10600 | 10100 | 3130 | 0.833 | 1.48 | 62.5 | 
9 | CC(C)n1ccc2c(N[C@H]3C4CCC(CC4)[C@@H]3C(=O)O)nc(-c3c[nH]c4ncc(F)cc34)nc21 [Example 78, (2S,3S)-3-((2-(5-fluoro-1H-pyrrolo[2,3-b]pyridin-3-yl)-7-isopropyl-7H-pyrrolo [2,3-d]pyrimidin-4-yl)amino)bicyclo[2.2.2]octane-2-carboxylic Acid] | 0.236 |  |  |  |  |  |  |  |  |  |  |  |  |  | 
10 | O=C(O)C1C2CCC(CC2)C1Nc1cc(-c2cccs2)nc(-c2c[nH]c3ncc(F)cc23)n1 (racemic) [Example 23, (+/−)-trans-3-((2-(5-fluoro-1H-pyrrolo[2,3-b]pyridin-3-yl)-6-(thiophen-2-yl)pyrimidin-4-yl)amino)bicyclo[2.2.2]octane-2-carboxylic Acid] | 0.104 |  |  |  |  |  |  |  |  |  |  |  |  |  | 
11 | CC(C)(C)[C@@H](CC(=O)O)Nc1nc(-c2c[nH]c3ncc(F)cc23)nc(-c2ccco2)c1F [Example 61, (R)-3-((5-fluoro-2-(5-fluoro-1H-pyrrolo[2,3-b]pyridin-3-yl)-6-(furan-2-yl)pyrimidin-4-yl)amino)-4,4-dimethylpentanoic Acid] |  | 4050 | 4030 | 8540 | 0.083 | 0.585 | 4.17 | 0.542 | 10700 | 10400 | 2710 | 1.5 | 5.95 | 53.1 | 
12 | O=C(O)C1C2CCC(CC2)C1Nc1nc(-c2c[nH]c3ncc(F)cc23)nc(-c2ccco2)c1F (racemic) [Example 49, (+/−)-trans-3-((5-fluoro-2-(5-fluoro-1H-pyrrolo[2,3-b]pyridin-3-yl)-6-(furan-2-yl)pyrimidin-4-yl)amino)bicyclo[2.2.2]octane-2-carboxylic Acid] | 0.068 |  |  |  |  |  |  |  |  |  |  |  |  |  | 
13 | O=C(O)C1C2CCC(CC2)C1Nc1nc(-c2c[nH]c3ncc(F)cc23)nc(-c2cc3ccccc3s2)c1F (racemic) [Example 55, (+/−)-trans-3-((6-(benzo[b]thiophen-2-yl)-5-fluoro-2-(5-fluoro-1H-pyrrolo [2,3-b]pyridin-3-yl)pyrimidin-4-yl)amino)bicyclo[2.2.2]octane-2-carboxylic Acid] | 0.874 |  |  |  |  |  |  |  |  |  |  |  |  |  | 
14 | O=C(O)C1C2CCC(CC2)C1Nc1cc(-c2cc3ccccc3o2)nc(-c2c[nH]c3ncc(F)cc23)n1 (racemic) [Example 16, (+/−)-trans-3-((6-(benzofuran-2-yl)-2-(5-fluoro-1H-pyrrolo[2,3-b]pyridin-3-yl)pyrimidin-4-yl)amino)bicyclo[2.2.2]octane-2-carboxylic Acid] | 0.54 |  |  |  |  |  |  |  |  |  |  |  |  |  | 
15 | O=C(O)C1C2CCC(CC2)C1Nc1nc(-c2c[nH]c3ncc(F)cc23)ncc1F (racemic) [Control VX-787 (racemization), (+/−)-trans-3-((5-fluoro-2-(5-fluoro-1H-pyrrolo[2,3-b]pyridin-3-yl)pyrimidin-4-yl)amino)bicyclo[2.2.2]octane-2-carboxylic acid, reference compound] |  |  |  |  |  |  |  |  |  |  |  |  |  | 58.4 | 
16 | O=C(O)C1C2CCC(CC2)C1Nc1cc(-c2ccco2)nc(-c2c[nH]c3ncc(F)cc23)n1 (racemic) [Example 9, (+/−)-trans-3-((2-(5-fluoro-1H-pyrrolo[2,3-b]pyridin-3-yl)-6-(furan-2-yl)pyrimidin-4-yl)amino)bicyclo[2.2.2]octane-2-carboxylic Acid] | 0.066 | 7350 | 7260 | 10900 | 0.083 | 0.551 |  | 1.52 | 17500 | 17400 | 5270 | 0.5 | 3.15 | 47.5 | 97.7
17 | O=C(O)[C@H]1C2CCC(CC2)C1Nc1cc(-c2ccc([N+](=O)[O-])o2)nc(-c2c[nH]c3ncc(F)cc23)n1 (stereo in doubt) [Example 24a, (2S,3S)-3-((2-(5-fluoro-1H-pyrrolo[2,3-b]pyridin-3-yl)-6-(5-nitrofuran-2-yl)pyrimidin-4-yl)amino)bicyclo[2.2.2]octane-2-carboxylic Acid] | 0.744 |  |  |  |  |  |  |  |  |  |  |  |  |  | 
18 | O=C(O)C1C2CCC(CC2)C1Nc1nc(-c2c[nH]c3ncc(F)cc23)nc(C#Cc2ccccc2)c1F (racemic) [Example 63, (+/−)-trans-3-((5-fluoro-2-(5-fluoro-1H-pyrrolo[2,3-b]pyridin-3-yl)-6-phenylethynyl)pyrimidin-4-yl)amino)bicyclo[2.2.2]octane-2-carboxylic Acid] |  | 4750 | 4710 | 4990 | 0.083 | 0.416 | 3.55 | 3.85 | 15400 | 15300 | 3280 | 2 | 3.59 | 65 | 
19 | O=C(O)[C@H]1C2CCC(CC2)C1Nc1cc(-c2ccco2)nc(-c2c[nH]c3ncc(F)cc23)n1 (stereo in doubt) [Example 9a, (2S,3S)-3-((2-(5-fluoro-1H-pyrrolo[2,3-b]pyridin-3-yl)-6-(furan-2-yl)pyrimidin-4-yl)amino)bicyclo[2.2.2]octane-2-carboxylic Acid] | 0.039 |  |  |  |  |  |  |  |  |  |  |  |  |  | 
